Experimental data as given in article PMC12400508 (RSC Advances, 2025).
≈ marks a conversion by molar mass, not a printed value.

Tests used:
Type in all cases: cell-based, Mycobacterium tuberculosis
mc^26230_R1 = tested on: mc^26230_R1
mc^26230_R3 = tested on: mc^26230_R3
[1] = tested on: mc^26230 overexpressing InhA (pMV261_inhA); assay: microbe, parasite or virus in culture; conditions: for fold change between the strain harboring the empty plasmid pMV261 and the strain overexpressing InhA: MIC pMV261_inhA / MIC pMV261; for MIC: Mycobacterium tuberculosis, read-out: MIC, pMV261_inhA

Row | SMILES | MIC, mc^26230_R1 (mc^26230_R1) [mg/L] | fold increase of MIC in the KatG mutated strains versus parental strain (mc^26230_R1) [fold] | MIC, mc^26230_R3 (mc^26230_R3) [mg/L] | fold change between the strain harboring the empty plasmid pMV261 and the strain overexpressing InhA [1] [fold] | MIC [1] [mg/L] | MIC, pMV261_inhA [1]
1 | Cc1ccccc1/C=C1\SC(NNC(=O)c2ccncc2)=NC1=O [9d] | 50 (≈ 148 µM) | 32 | 50 (≈ 148 µM) | 16 | 50 (≈ 148 µM) | 
2 | O=C1N=C(NNC(=O)c2ccncc2)S/C1=C\c1ccc(F)cc1 [9j] | 100 (≈ 292 µM) | 8 | 100 (≈ 292 µM) | 8 | 100 (≈ 292 µM) | 
3 | O=C1N=C(NNC(=O)c2ccncc2)S/C1=C\c1ccccc1F [9l] | 100 (≈ 292 µM) | 4 | 100 (≈ 292 µM) |  |  | 
4 | O=C1N=C(NNC(=O)c2ccncc2)S/C1=C\c1ccc(Cl)cc1 [9n] | 100 (≈ 279 µM) | 8 | 100 (≈ 279 µM) | 4 | 100 (≈ 279 µM) | 
5 | O=C1N=C(NNC(=O)c2ccncc2)S/C1=C\c1ccccc1Cl [9p] | 100 (≈ 279 µM) | 4 | 100 (≈ 279 µM) |  |  | 
6 | NNC(=O)c1ccncc1 [INH, isoniazid, reference compound] | >10 |  | >10 | 16 | 1.25 (≈ 9.11 µM) | 
7 | CO[C@H]1/C=C/O[C@@]2(C)Oc3c(C)c(O)c4c(O)c(c(/C=N/N5CCN(C)CC5)c(O)c4c3C2=O)NC(=O)/C(C)=C\C=C\[C@H](C)[C@H](O)[C@@H](C)[C@@H](O)[C@@H](C)[C@H](OC(C)=O)[C@@H]1C [RIF, reference compound] |  |  |  | 1 | 0.039 (≈ 0.0474 µM) | unaffected
